{
  "source": "paper PMC4607650",
  "about": "(Bioorganic & medicinal chemistry letters, 2015)",
  "key": {"hP2Y14R [1]": {"target": "T1, hP2Y14R (Homo sapiens, UniProt Q15391)", "T1 sequence (Q15391 1-338)": "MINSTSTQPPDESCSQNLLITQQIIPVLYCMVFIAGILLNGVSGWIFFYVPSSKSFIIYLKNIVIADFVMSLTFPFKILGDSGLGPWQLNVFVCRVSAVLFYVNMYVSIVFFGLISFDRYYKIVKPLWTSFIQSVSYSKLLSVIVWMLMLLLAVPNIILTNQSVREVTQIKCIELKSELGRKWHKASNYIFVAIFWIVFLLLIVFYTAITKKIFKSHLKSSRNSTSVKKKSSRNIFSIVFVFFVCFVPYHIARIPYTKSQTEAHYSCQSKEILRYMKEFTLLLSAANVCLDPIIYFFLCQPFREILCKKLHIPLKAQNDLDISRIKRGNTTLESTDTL", "assay": "competition for fluorescent binding of tracer 11"}, "human P2Y14R": {"target": "T2, human P2Y14R (Homo sapiens, UniProt Q15391)", "T2 sequence (Q15391 1-338)": "T1 sequence (Q15391 1-338)", "assay": "inhibition of forskolin-stimulated cAMP accumulation in CHO-P2Y14R cells", "assay_type": "cell-based", "settings": "cAMP EC50 ratio, hP2Y14R-CHO cells"}, "hP2Y14R [2]": {"target": "T1, hP2Y14R", "assay_type": "binding"}, "P2Y14R-CHO cells": {"target": "T3, P2Y14R-CHO cells (Homo sapiens, UniProt Q15391)", "T3 sequence (Q15391 1-338)": "T1 sequence (Q15391 1-338)", "assay": "confocal fluorescence microscopy labeling of P2Y14R-CHO cells by 11", "assay_type": "cell-based"}, "P2Y6R": {"test_system": "P2Y6R", "settings": "read-out: EC50 for activation of the P2Y6R; cited from earlier work"}},
  "note": "Entries after “also recorded” stand apart in the source; their conditions may differ.",
  "data": [
    {"smiles": "S=C=Nc1cccc(NC(=S)NCCCCNC(=S)Nc2cccc(N=C=S)c2)c1", "note": "[Compound 13]", "values": [
      {"measurement": "inhibition of binding of 11 at hP2Y14R at fixed concentration", "setting": "hP2Y14R [1]; test ligand at 10 μM, tracer 11 50 nM, FCM", "result": "did not show any significant binding; also recorded: No inhibition at 10 μM"}
    ]},
    {"smiles": "O=C(COc1ccc(C2=[N+]3C(=Cc4ccc(-c5cccs5)n4[B-]3(F)F)C=C2)cc1)NCCCCCNC(=O)[C@H]1O[C@H](OP(=O)(O)OP(=O)(O)OCC2OC(n3ccc(=O)[nH]c3=O)C(O)C2O)[C@H](O)[C@@H](O)[C@@H]1O", "note": "(some centres unmarked) [Compound 11]", "values": [
      {"measurement": "potency enhancement of the fluorescent conjugate versus 47 nM parent", "setting": "human P2Y14R", "result": 50, "unit": "fold"},
      {"measurement": "Bmax", "setting": "hP2Y14R [2]; FCM saturation binding, n=3", "result": "44,400 MESF"},
      {"measurement": "level of nonspecific binding", "setting": "hP2Y14R [2]; FCM, coincubation with up to 200 nM 5", "result": "very low"}
    ]},
    {"smiles": "O=C(O)c1cc(-c2ccc(C3CCNCC3)cc2)c2ccc(-c3ccc(C(F)(F)F)cc3)cc2c1", "note": "[Compound 5, 4-(4-(piperidin-4-yl)-phenyl)-7-(4-(trifluoromethyl)-phenyl)-2-naphthoic acid]", "values": [
      {"measurement": "inhibition of fluorescent labeling by 11 (confocal microscopy)", "setting": "P2Y14R-CHO cells", "result": "complete inhibition of binding"},
      {"measurement": "inhibition of binding of 11 (FCM, concentration dependence)", "setting": "hP2Y14R [1]", "result": "Nearly complete inhibition"}
    ]},
    {"smiles": "CONc1ccn([C@@H]2O[C@H](COP(=O)(O)OP(=O)(O)OP(=O)(O)OC[C@H]3O[C@@H](n4ccc(=O)[nH]c4=O)[C@@H](O)[C@H]3O)[C@H](O)[C@@H]2O)c(=O)n1", "note": "[Compound 12, P^1-(uridine 5′-)-P^3-(N^4-methoxycytidine 5′-)triphosphate]", "values": [
      {"measurement": "EC50", "setting": "P2Y6R", "result": 12, "unit": "nM"},
      {"measurement": "Ki at P2Y14R relative to EC50 at P2Y6R", "setting": "hP2Y14R [1]; Ki (FCM, P2Y14R) higher than P2Y6R EC50", "result": "about 500 fold"}
    ]}
  ]
}
